Data taken from ChEMBL document CHEMBL1150414, “Synthesis, nano-scale assembly, and in vivo anti-thrombotic activity of novel short peptides containing L-Arg and L-Asp or L-Glu” (2008).
“And” between values parts separate entries of the source, which are not always exact repeats. Equal entries are not always repeated. Starred links: 1 amine or outer side, 2 acyl side, 3 side chain; linkers in the order of their positions; H or OH if unused. Non-standard residues stand in square brackets, D forms with d. Residues, ends and D or L forms follow the SMILES beside them. Groups on a side chain read outwards from the residue. βAsp = O=C(O)[C@H](CC(=O)[*:2])N[*:1]

Assays:
[1] = tested on: Rattus norvegicus; experiment: Antithrombotic activity in Wistar rat assessed as reduction of thrombus weight at 5 umol/kg, iv; format: functional
[2] = tested on: Rattus norvegicus; experiment: Antithrombotic activity in iv dosed Wistar rat assessed as reduction of thrombus weight; format: functional, organism-based
[3] = tested on: Rattus norvegicus; experiment: Antithrombotic activity in Wistar rat assessed as thrombus weight at 5 umol/kg, po; format: functional
[4] = tested on: Rattus norvegicus; experiment: Antithrombotic activity in Wistar rat assessed as thrombus weight at 20 mg/kg, po; format: functional

Structure (SMILES)	Activity [2]	also measured
N=C(N)NCCC[C@H](NC(=O)C[C@H](N)C(=O)N[C@@H](CCCNC(=N)N)C(=O)N[C@@H](CC(=O)O)C(=O)O)C(=O)N[C@@H](CC(=O)O)C(=O)O (H-Asp([Arg-Asp])-Arg-Asp-OH)		Activity [1]: 25.12 mg and 15%
N=C(N)NCCC[C@H](NC(=O)C[C@H](NC(=O)C[C@H](N)C(=O)N[C@@H](CC(=O)N[C@@H](CCCNC(=N)N)C(=O)O)C(=O)O)C(=O)O)C(=O)O (H-Asp([βAsp-Arg])-[βAsp]-Arg-OH)	Dose-dependent effect	Activity [3]: 23.2 mg
N=C(N)NCCC[C@H](NC(=O)CC[C@H](N)C(=O)N[C@@H](CCCNC(=N)N)C(=O)N[C@@H](CC(=O)O)C(=O)O)C(=O)N[C@@H](CC(=O)O)C(=O)O (H-Glu([Arg-Asp])-Arg-Asp-OH)	Dose-dependent effect	
N=C(N)NCCC[C@H](NC(=O)C[C@H](NC(=O)CC[C@H](N)C(=O)N[C@@H](CC(=O)O)C(=O)N[C@@H](CCCNC(=N)N)C(=O)O)C(=O)O)C(=O)O (H-Glu([βAsp-Arg])-Asp-Arg-OH)	Dose-dependent effect	
CC(=O)Oc1ccccc1C(=O)O [ASPIRIN]		Activity [4]: 8.5 mg
